IC50 data for three compounds are collected here from patent publication US11851447B2, “Dinuclear platinum(II) compounds and methods of use thereof” (UNIVERSITY OF IOWA RESEARCH FOUNDATION, priority 2019, dated 2023).

Where a name gives a salt, the structure may show the parent alone. Read-outs that look alike come from different tables or passages of the source.

Assay [1] has as its target DNAse I. Description: DNAse I inhibitor assay based on NIR emission of 4/QIII ensemble. In kind it is biochemical. The settings on record: [4]=4 μM, [QIII]=8 μM, [DNAse I]=4 U/ml, NIR emission at 785 nm; read-out: IC50 (DNAse I inhibition). As to the method:
General Procedure for Multiwell DNAse I Assay. A reaction mixture (total volume of 100 μL) containing 4 (4 μM) and QIII (8 μM) was prepared in 9:1 Tris buffer (10 mM Tris-HCl, 0.25 mM MgCl2, 0.1 mM CaCl2, pH 7.5):DMSO. Tris buffer was prepared using nuclease-free water. The reaction mixtures were prepared in white 96-well plates (Costar, Corning, NY) and incubated at room temperature for 2 min. Varying concentrations of DNAse I prepared in Tris buffer (10 mM Tris-HCl, 0.25 mM MgCl2, 0.1 mM CaCl2, pH 7.5) were added to the reaction mixture and incubated at room temperature for 10 min. Fluorescence spectra were obtained using Agilent Cary Eclipse fluorescence spectrophotometer, λex=445 nm. NIR emission intensity at 785 nm was detected.
Determination of IC50 Values of DNAse I Inhibitors. DNAse I assay was performed as previously described in the presence of DNAse I (4 U) and various concentrations of the inhibitor. Stock solutions of the inhibitors were prepared in Tris buffer (10 mM Tris-HCl, pH 7.5). The IC50 values were calculated by plotting log[inhibitor] versus NIR emission intensity of 4. The dose-response curves were analyzed by nonlinear regression using GraphPad Prism 8.0 (GraphPad Software, Inc., La Jolla, CA, USA).

Assay [2] concerns the target DNAse I. The settings on record: previously reported values (Jang et al., J. Biomol. Screen. 2015); cited from earlier work.

`O=C(O)CN(CCN(CC(=O)O)CC(=O)O)CC(=O)O` [EDTA]: the IC50 in assay [1] was 202 µM; in assay [2] it was 190 µM.
As for `N=C(N)NNc1ccc(NNC(=N)N)cc1` [JR-132, 1,4-phenylene-bis-aminoguanidine hydrochloride], the IC50 was 2.29 µM in assay [1] and 2.73 µM in assay [2].
As for `[Cl-].[Cl-].[Zn+2]` [ZnCl2], the IC50 in assay [1] was 20.7 µM; in assay [2], 18 µM.

Broadly, the IC50 is the point on the concentration scale where inhibition reaches its midpoint.
